Assays:
[1] = system: release of soluble CD23 from RPMI 8866 cell plasma membranes; test: RPMI 8866 cell membrane CD23 cleavage activity assay; assay type: biochemical, human; conditions: RPMI 8866 plasma membranes, 37° C., sCD23 by EIA; read-out: IC50, inhibition of production of sCD23
Experimental: Procedure 1: The ability of test compounds to inhibit the release of soluble CD23 was investigated by use of the following procedure.
RPMI 8866 Cell Membrane CD23 Cleavage Activity Assay:
Plasma membranes from RPMI 8866 cells, a human Epstein-Barr virus transformed B-cell line (Sarfati et al., Immunology 60 [1987] 539–547) expressing high levels of CD23 are purified using an aqueous extraction method. Cells resuspended in homogenization buffer (20 mM HEPES pH 7.4, 150 mM NaCl, 1.5 mM MgCl2, 1 mM DTT) are broken by N2 cavitation in a Parr bomb and the plasma membrane fraction mixed with other membranes is recovered by centrifugation at 10,000×g. […]
The fractionated membranes are incubated at 37° C. for times up to 4 hrs to produce fragments of CD23 which are separated from the membrane by filtration in 0.2 micron Durapore filter plates (Millipore) after quenching the assay with a non-selecitve MMP inhibitor, e.g. 5 uM Preparation 1 from WO 95/31457 ([4-(N-Hydroxyamino)-2-(R)-isobutyl-3-(S)-(2-thiophenethiomethyl)succinyl]-(S)-phenylalanine-N-methylamide sodium salt, prepared according to the procedure described in Example 11 of WO 90/05719). sCD23 released from the membrane is determined using the EIA kit from The Binding Site (Birmingham, UK) or a similar one utilising MHM6 anti-CD23 mAb [Rowe et al., Int. […]

[2] = molecular target: T1, human recombinant collagenase (Homo sapiens, UniProt P03956); test: Collagenase inhibition assay; assay type: biochemical; conditions: 37° C., 18 h, 3H type 1 bovine collagen; read-out: IC50, collagenase inhibition (procedure 2)
T1 construct: made in house; host or cells: E. coli
T1 sequence (P03956 100-469): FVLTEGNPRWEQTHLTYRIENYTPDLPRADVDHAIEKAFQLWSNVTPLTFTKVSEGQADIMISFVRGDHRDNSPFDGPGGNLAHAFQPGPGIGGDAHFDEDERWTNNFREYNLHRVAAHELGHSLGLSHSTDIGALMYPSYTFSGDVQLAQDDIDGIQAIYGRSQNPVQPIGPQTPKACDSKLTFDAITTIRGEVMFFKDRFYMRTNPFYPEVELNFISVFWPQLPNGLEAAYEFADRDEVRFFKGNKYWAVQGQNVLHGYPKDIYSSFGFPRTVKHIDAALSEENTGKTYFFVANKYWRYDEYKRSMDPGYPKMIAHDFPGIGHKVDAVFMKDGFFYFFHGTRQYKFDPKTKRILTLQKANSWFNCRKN
Experimental: Procedure 2: The ability of test compounds to inhibit matrix metalloproteases was investigated using the following procedures.
Collagenase Inhibition Assay:
The potency of compounds to act as inhibitors of collagenase was determined by the method of Cawston and Barrett (Anal. Biochem. 99, 340–345, 1979), hereby incorporated by reference, whereby a 1 mM solution of the inhibitor being tested or dilutions thereof, was incubated at 37° C. for 18 h with collagen and human recombinant collagenase, from synovial fibroblasts cloned, expressed and purified from E. Coli, (buffered with 150 mM Tris, pH 7.6, containing 15 mM calcium chloride, 0.05% Brij 35, 200 mM sodium chloride and 0.02% sodium azide). The collagen was acetylated ^3H type 1 bovine collagen prepared by the method of Cawston and Murphy (methods in Enzymology 80, 711,1981) The samples were centrifuged to sediment undigested collagen and an aliquot of the radioactive supernatant removed for assay on a scintillation counter as a measure of hydrolysis. The collagenase activity in the presence of 1 mM inhibitor, or dilution thereof, was compared to activity in a control devoid of inhibitor and the results reported as that concentration effecting 50% of the collagenase (IC50).

MMP-13 = molecular target: T2, MMP-13 (Homo sapiens, UniProt P45452); test: General MMP inhibition assay (fluorescence quench); assay type: biochemical; conditions: inhibitor up to 100 uM
T2 construct: purchased Calbiochem
Experimental: (§1) General MMP Inhibition Assays:
(§2) Inhibition of matrix metalloprotease activity was determined using a fluorescence quench assay with appropriate substrate. For example, MMP activity was determined using MMP activated using trypsin, according to Lark et al, Connective Tissue Res. 25, 52 (1990). The MMP is incubated at room temperature in a microtitre plate in a total volume of 100 ul, containing 0.15 M Tris Cl, 15 mM CaCl2, 0.2 M NaCl, pH 7.6 (assay buffer); inhibitor at concentrations up to 100 uM, with no more than 2% DMSO final concentration, 10 uM substrate (such as SDP-3815-PI for MMP-1, Peptides International). The MMP concentration is <10 nM, and determined empirically with the appropriate substrate to give at least a 20-fold increase in fluorescence emission in 30 min. Fluorescent excitation wavelength was 355 nm, emission wavelength 400–460 nm, and data points are collected to generate slope (change in fluorescence with time). Percent inhibition for each concentration is calculated from the slope at time zero, and IC50 values from the concentration dependence. MMP-1, 2, 3, 7, 9, 13, 14 may all be assayed in the same manner, using commercially available substrates reported to be effective for each enzyme. Enzymes were obtained from Calbiochem and activated using the same trypsin method.

MMP-3 = molecular target: T3, MMP-3 (Homo sapiens, UniProt P08254); test: General MMP inhibition assay (fluorescence quench); assay type: biochemical; conditions: inhibitor up to 100 uM
T3 construct: purchased Calbiochem
T3 sequence (P08254 100-477, species assumed): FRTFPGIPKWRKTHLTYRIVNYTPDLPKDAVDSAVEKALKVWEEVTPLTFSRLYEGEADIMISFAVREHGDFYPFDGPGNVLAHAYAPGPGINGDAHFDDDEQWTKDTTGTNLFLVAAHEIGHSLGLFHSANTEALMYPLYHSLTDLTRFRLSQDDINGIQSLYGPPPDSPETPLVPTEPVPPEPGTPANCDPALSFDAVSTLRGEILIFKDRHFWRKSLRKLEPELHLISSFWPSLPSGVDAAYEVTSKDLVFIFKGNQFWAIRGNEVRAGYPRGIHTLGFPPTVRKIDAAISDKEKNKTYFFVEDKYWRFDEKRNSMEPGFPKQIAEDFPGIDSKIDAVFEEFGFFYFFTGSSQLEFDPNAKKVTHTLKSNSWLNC
Experimental: as §1, §2

IC50 [1]: 0.06 µM | IC50 [2]: 100 µM | IC50 (MMP-13): 6 µM | IC50 (MMP-3): > 100 µM
Compound: O=CN(O)[C@H](CS(=O)(=O)Cc1cnc2ccccc2c1)[C@H]1CCCO1 [Example 1]
